Results: publication PMC7582324, “Potential Anti-Acetylcholinesterase Activity of Cassia timorensis DC” (Molecules, 2020)
Values after ≈ are worked out from the molar mass of the structure shown. “Also recorded” adds a separate entry of the source. Where two headings read alike, the source gives them in different places.

Experiments:
[1] = cited from earlier work
[2] = molecular target: Acetylcholinesterase (AChE) from Electrophorus electricus (electrical eels) type VI-S (Electrophorus electricus, UniProt O42275); test: biochemical; assay type: biochemical; details: for inhibition at 100 µg/mL: read-out: AChE inhibition (%)
Description: Coloring agent 5-5′dithiobis [2-nitrobenzoicacid] (DTNB) was purchased from ACROS (Geel, Belgium). Silica gel (Kieselgel 60, 230–400 mesh atm) was purchased from Merck (Darmstadt, Germany). The solvents were of analytical grade and used as received.
The in vitro AChE inhibition assay was evaluated using a spectrophotometry method developed by Ellman with some modifications. […] Plant extracts were dissolved in dimethyl sulfoxide (DMSO) and tested at a final concentration of 0.2 mg/mL, while compounds were tested at 0.1 mg/mL. The final concentration of DMSO was fixed at 1% in the 96-well plate. In a 96-well plate, 178 µL of 50 mM phosphate buffer, 2 µL of […] compound and 20 mg/mL extract, and 10 µL of 0.5 U/mL AChE were added. The first incubation period was 15 min at 25 °C. Five microliters of 14 mM ATCI substrate and 10 mM of the color indicator, DTNB, were added equally into each well and the well was then incubated at 25 °C for 30 min to initiate the enzyme reaction. The absorbance was measured at 415 nm using Promega Glomax® Multi Plus Reader (Promega, Madison, WI, USA). […] The percentage of inhibition was calculated using formula (1):(1) Percentage Inhibition (%) = Absorbance of negative control − Absorbance of test sample/ Absorbance of negative control × 100
IC50 values of plant crude extract, fractions, and compounds were calculated from the graph of percentage of inhibition versus extract concentrations using Microsoft Excel. GraphPad Prism software was used to generate the graphs.

AChE = details: individual compounds; cited from earlier work
[3] = isolated compounds at 0.1 mg/mL

Sequence of Acetylcholinesterase (AChE) from Electrophorus electricus (electrical eels) type VI-S (O42275 24-633): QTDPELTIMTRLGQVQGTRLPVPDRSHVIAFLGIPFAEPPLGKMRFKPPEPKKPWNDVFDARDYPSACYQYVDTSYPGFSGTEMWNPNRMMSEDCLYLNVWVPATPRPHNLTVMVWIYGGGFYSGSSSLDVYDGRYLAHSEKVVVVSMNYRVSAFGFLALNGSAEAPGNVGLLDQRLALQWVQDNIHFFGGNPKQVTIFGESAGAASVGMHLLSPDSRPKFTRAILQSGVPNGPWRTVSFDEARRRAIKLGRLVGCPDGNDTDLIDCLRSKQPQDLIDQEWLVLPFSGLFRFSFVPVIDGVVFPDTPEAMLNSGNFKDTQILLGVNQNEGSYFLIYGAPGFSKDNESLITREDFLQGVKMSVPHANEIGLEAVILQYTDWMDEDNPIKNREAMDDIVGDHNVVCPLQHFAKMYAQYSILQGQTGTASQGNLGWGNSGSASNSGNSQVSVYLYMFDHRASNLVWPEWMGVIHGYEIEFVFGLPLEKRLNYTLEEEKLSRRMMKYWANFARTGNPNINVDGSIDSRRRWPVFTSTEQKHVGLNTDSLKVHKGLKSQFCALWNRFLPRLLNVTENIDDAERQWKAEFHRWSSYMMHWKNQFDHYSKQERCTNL

Row | Compound | BBB permeability [1] | inhibition at 100 µg/mL [2] [%] | other results
1 | COc1ccc(-c2cc(=O)c3c(O)c(OC)c(O)c(OC)c3o2)cc1 [nevadensin] | high BBB permeability |  | 
2 | CC[C@H](CC[C@@H](C)[C@H]1CC[C@H]2[C@@H]3CC=C4C[C@@H](O)CC[C@]4(C)[C@H]3CC[C@]12C)C(C)C [Compound 4, β-sitosterol] |  | < 50 | IC50 against AChE (AChE): 55 µg/mL (≈ 133 µM)
3 | COc1cc(-c2cc(=O)c3c(O)c(OC)c(O)c(OC)c3o2)ccc1O [sudachitin] | high BBB permeability |  | 
4 | COc1c(-c2ccc(O)c(O)c2)oc2cc(O)cc(O)c2c1=O [Compound 1, 3-methoxyquercetin] |  |  | AChE activity relative to quercetin [2]: approximately three times higher than quercetin; AChE inhibitory activity (in words) [2, 3]: moderate inhibition; IC50 ([2]; mean ± s.d. (n = 3), read-out: AChE Inhibition (IC50)): 83.7 ± 4.67 µM
5 | CC[C@H](/C=C/[C@@H](C)[C@H]1CC[C@H]2[C@@H]3CC=C4C[C@@H](O)CC[C@]4(C)[C@H]3CC[C@]12C)C(C)C [Compound 5, stigmasterol] |  | < 50 | IC50 against AChE (AChE): 63 µg/mL (≈ 153 µM)
6 | CCCCCCCCCCCCCCCCCCO [Compound 6, 1-octadecanol] |  | < 50 | AChE inhibitory activity (in words) [2, 3]: weak inhibitory activity; also recorded: not active
7 | CCC=CCC=CCC=CCCCCCCCC(=O)O [Compound 3, 9,12,15-octadecatrienoic acid] |  | < 50 | AChE inhibitory activity (in words) [2]: weak inhibitory activity; also recorded: not active
8 | aceronin | high BBB permeability |  | 
